Reference: US20230218654A1, “COMPOSITIONS AND METHODS FOR TREATING HYPERGLYCEMIA IN TYPE-2 DIABETES” (The Board of Regents of the university of Oklahoma, priority 2020, published 2023)

Test system: skeletal muscle cullin neddylation and AKT phosphorylation
Assay: Western blot of gastrocnemius (skeletal) muscle after acute MLN4924
Type: in vivo, mice
Conditions: chow diet; 60 mg/kg SQ twice
Experimental: Male C57BL/6J mice on chow diet were treated with 60 mg/kg MLN6924 via subcutaneous (SQ) injection at 5 pm on day 1 and 9 am on day 2. Mice were fasted from 9 am to 3 pm on day 2 and sacrificed. Effect of MLN4924 on gastrocnemius muscle cullin neddylation and AKT phosphorylation was measured by Western blotting.
Human normal livers (less than 5% steatosis) and histologically confirmed NASH livers were obtained from either the University of Kansas Liver Center or the Liver Tissue Cell Distribution System (LTCDS) at the University of Minnesota. Human and mouse tissue samples were homogenized in 1XRIPA buffer containing 1% SDS and protease inhibitors. After incubation on ice for 1 hour, the samples were centrifugation and supernatant was transferred to a new tube. The protein lysate was mixed with equal volume of 2X laemmli buffer and incubated at 95° C. for 5 minutes and used for SDS-PAGE and immunoblotting. ImageJ software (NIH) was used to determine band intensity.
To further explore the hepatic insulin sensitizing effect of neddylation inhibition in vivo, we administered MLN4924 to chow-fed mice twice via subcutaneous (SQ) injection (5 pm on day 1 and 9 am on day 2) and studied the acute effect of MLN4924. The dose of 60 mg/kg is in line with published literature. […] In addition to liver, skeletal muscle is another organ that quantitatively contribute to plasma glucose homeostasis.

## NS(=O)(=O)OC[C@@H]1C[C@@H](n2ccc3c(N[C@H]4CCc5ccccc54)ncnc32)C[C@@H]1O [MLN4924, ((1S,2S,4R)-4-(4-((1S)-2,3-dihydro-1H-inden-1-ylamino)-7H-pyrrolo[2,3-d]pyrimidin-7-yl)-2-hydroxycyclopentyl) methyl sulfamate]
  increase of AKT phosphorylation in skeletal muscle: did not
  increase of IRS protein abundance in skeletal muscle: did not
  inhibition of cullin neddylation in skeletal muscle: did not inhibit cullin neddylation
